Assay results taken from patent US9416145B2, “Compositions and methods for inhibiting activity of hypoxia-inducible transcription factor complex and its use for treatment of tumors” (priority 2012, dated 2016).

Experiments:
[1] = molecular target: T1, GST-tagged CH1 domain of human p300 (aa residues 323-423) (Homo sapiens, UniProt Q09472); assay: SPR direct binding to immobilized GST-CH1-p300; set-up: direct binding to GST-CH1-p300 (in words): dose or concentration left out as unconfirmed
T1 construct: CH1 domain of human p300 (aa residues 323-423)
Description: Prior to undertaking more rigorous biophysical and biological characterization of dimeric ETPs LS69 and LS72, it was important to first characterize its thermodynamic binding properties toward the target, p300 CH1 domain. We conducted SPR experiments in the presence of DTT to mimic the reducing environment that would be found in the intracellular milieu. From the SPR sensorgrams it is clear that both LS69 and LS72 bind directly to the GST-tagged CH1 domain of human p300 (aa residues 323-423) with high affinity.

[2] = MTT cytotoxicity assay in MCF7 cells; assay type: cell-based; conditions: human, MCF7, 24 h treatment
Experimental: FIG. 10 MTT cytotoxicity assay for LS72 in MCF7 cells. Cells were maintained in RPMI-1640 media supplemented with 10% FBS. Cells were treated with different concentrations of LS72 for 24 hours and the amount of purple formazan formed was determined via spectrophotometry.
Based on this EC50 value of LS72 in MCF7 cells we chose to measure its effect on HIF inducible transcription at a maximum concentration of 400 nM in MCF7 cells. This is important in order to minimize the nonspecific effects on mRNA levels due to reduction in cell viability.

VEGF mRNA in A549 cells = assay: qRT-PCR of VEGF mRNA in A549 cells; assay type: cell-based
Experimental: (§1) FIG. 13 mRNA levels of three HIF1α inducible genes: VEGF, c-Met and Glut1 in A549 cells after treatment with LS72. Data from qRT-PCR experiments showing mRNA levels of three HIF1α inducible genes, VEGF, c-Met and Glut1 in A549 after treatment of the cells in a medium with 0.2% serum with LS72 (400 nM). Hypoxia was induced 300 μM by DFO. Error bars are ±s.e.m for the experiments performed in […]. Error bars are ±s.e.m. of experiments performed in triplicate. ***P<0.001, ** P<0.01, t test.
FIG. 15 mRNA levels for VEGF in A549 cell line, illustrating the dose response to LS72 treatment at three different concentrations. qRT-PCR assays were performed in order to determine the mRNA levels for VEGF in A549 cell line treated with LS72 at concentrations: 100 nM, 400 nM, 1600 nM. Hypoxia was induced by DFO (300 μM). Error bars are ±sem for the experiments performed in triplicate. Error bars are ±s.e.m. of experiments performed in triplicate. ** P<0.01, * P<0.05, t test.
(§2) After tests with various serum levels in the media and hypoxia induction methods, the conditions that worked remarkably and consistently well for the induction of HIF1α dependent genes were to keep A549 cells in 2% serum followed by treating cells with compound or control in the media with 0.2% serum for 48 h (FIG. 13). Under these conditions while hypoxia bag was the best option for induction of the LOX gene, the best hypoxic response leading to upregulation of many other HIF1α inducible genes was treatment with 300 μM DFO.
(§3) The hypoxia induction was done at a confluency of 85% cells in serum free F-12K medium with 300 μM DFO.

c-Met mRNA in A549 cells = assay: qRT-PCR of c-Met mRNA in A549 cells; assay type: cell-based; conditions: 300 μM DFO
Experimental: as §1
FIG. 16 mRNA levels for c-Met in A549 cell line showing dose response to LS72 at concentrations of 100 nM, 400 nM, 1600 nM. qRT-PCR was used to determine the mRNA levels of c-Met Hypoxia was induced with DFO (300 μM). Error bars are ±sem for the experiments performed in triplicate. Error bars are ±s.e.m. of experiments performed in triplicate. *** P<0.001, **P<0.01, # P<0.1, t test.
(§4) After tests with various serum levels in the media and hypoxia induction methods, the conditions that worked remarkably and consistently well for the induction of HIF1α dependent genes were to keep A549 cells in 2% serum followed by treating cells with compound or control in the media with 0.2% serum for 48 h (FIG. 13). […]

Glut1 mRNA in A549 cells = assay: qRT-PCR of Glut1 mRNA in A549 cells; assay type: cell-based; conditions: 300 μM DFO
Experimental: as §1
FIG. 17 qRT-PCR data for Glut1mRNA in 85% confluent A549 cells treated with LS72 at three different concentrations. qRT-PCR assays were performed in order to determine the mRNA levels for Glut1 in A549 cell line treated with LS72 at concentrations: 100 nM, 400 nM, 1600 nM. Hypoxia was induced with DFO (300 μM). Error bars are ±sem for the experiments performed in triplicate. Error bars are ±s.e.m. of experiments performed in triplicate. *** P<0.001, ** P<0.01, t test.
as §4

CXCR4 mRNA in A549 cells = assay: qRT-PCR of CXCR4 mRNA in A549 cells; assay type: cell-based
Experimental: FIGS. 14 (A) qRT-PCR data for LOX and (B) CXCR4 genes in A549 cells treated with LS72. Hypoxia was induced by hypoxia bag. Cells were maintained in F-12K medium with 2% serum. After reaching 65% confluency the cells were grown in serum free media and treated with LS72 (400 nM). Hypoxia was induced with DFO (300 μM) for 48 h. Error bars are s.e.m. of experiments performed in triplicate. **P<0.01, t test.
FIG. 18 qRT-PCR data for A549 cells where hypoxia was induced in 85% confluent cells. […] Error bars are ±sem for the experiments performed in triplicate. ** P<0.01, # P<0.1, t test.
as §2, §3

[3] = A549 85% confluent, 100 nM, 400 nM, 1600 nM
[4] = A549, LS72 400 nM, 0.2% serum, 48 h

T1 sequence (Q09472 323-423): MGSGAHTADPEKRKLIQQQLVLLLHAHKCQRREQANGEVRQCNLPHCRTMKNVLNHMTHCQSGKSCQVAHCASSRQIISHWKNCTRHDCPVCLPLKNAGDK

CN1C(=O)[C@]2(Cc3ccc(CCc4ccc(C[C@@]56SS[C@@](CO)(C(=O)N5C)N(C)C6=O)cc4)cc3)SS[C@@]1(CO)C(=O)N2C (racemic) [LS72, 4,4′-((ethane-1,2-diylbis(4,1-phenylene))bis(methylene))bis(1-(hydroxymethyl)-5,7-dimethyl-2,3-dithia-5,7-diazabicyclo[2.2.2]octane-6,8-dione)]
direct binding to GST-CH1-p300 (in words) [1]: bind directly | kon ([1]; in the presence of DTT, read-out: rate of association (ka)): 4250 M⁻¹ s⁻¹ | Kd ([1]; off rate/on rate, read-out: binding constant KD): 3.62 µM | EC50 at 24 h [2]: 0.547 µM | HIF1α inducible transcription of VEGF, dose response (VEGF mRNA in A549 cells; A549 85% confluent, hypoxia 300 μM DFO, 100 nM, 400 nM, 1600 nM): dose dependent decrease | reduction of VEGF mRNA levels (VEGF mRNA in A549 cells; A549, LS72 400 nM, 0.2% serum, 300 μM DFO, 48 h): 50% | VEGF transcription levels in normoxia (VEGF mRNA in A549 cells; A549, normoxia, 100 nM, 400 nM, 1600 nM): not changed significantly | c-Met transcriptional upregulation, dose response (c-Met mRNA in A549 cells; [3]): Dose-dependent decrease | c-Met mRNA level (in words) (c-Met mRNA in A549 cells; [4]): significantly downregulated, essentially reaching its normoxic levels | Glut1 hypoxic transcriptional up-regulation, dose response (Glut1 mRNA in A549 cells; [3]): dose dependent decrease | reduction of Glut1 mRNA levels (Glut1 mRNA in A549 cells; [4]): more than 60% | CXCR4 mRNA levels, dose response (CXCR4 mRNA in A549 cells; A549 85% confluent, 300 μM DFO, 400 nM and 1600 nM): dose-dependent decrease | CXCR4 transcriptional activity (in words) (CXCR4 mRNA in A549 cells; A549, 400 nM): excellent inhibition of the transcriptional activity
